This data set is described as follows: solvent given as SMILES.
The mark [1] stands for this setting: in CCCCCCCCC=CCCCCCCCC(=O)OCC(COC(=O)CCCCCCCC=CCCCCCCCC)OC(=O)CCCCCCCC=CCCCCCCCC

Experimental findings from the CombiSolv-Exp solvation set (Vermeire and Green 2021) are described below.

For the compound `[HH]`, the “solvation free energy, 298 K” value is, setting by setting: (in Brc1ccccc1) 1.77 kcal/mol; (in C1CCNC1) 1.62 kcal/mol; (in C1CCNCC1) 1.63 kcal/mol; (in C1CCOC1) 1.46 kcal/mol; (in C1COCCO1) 1.76 kcal/mol; (in C=CCCCCCC) 1.36 kcal/mol. Further, the “solvation free energy, 298 K” value is 1.6 kcal/mol (in C=CCCCCCCC=C); 2.04 kcal/mol (in CC1COC(=O)O1); 1.45 kcal/mol (in CC#N); 1.49 kcal/mol (in CC(=O)OCC(C)C); 1.49 kcal/mol (in CC(C)(C)O); 1.38 kcal/mol (in CC(C)=O). In addition, the “solvation free energy, 298 K” value was 1.28 kcal/mol (in CC(C)CC(C)(C)C); 1.76 kcal/mol (in CC(C)CCO); 1.53 kcal/mol (in CC(C)CO); 1.3 kcal/mol (in CC(C)N); 1.45 kcal/mol (in CC(C)O); 1.45 kcal/mol (in CCC(C)=O). The “solvation free energy, 298 K” value by setting is: (in CCC(C)O) 1.56 kcal/mol; (in CCCCC(CC)CO) 1.64 kcal/mol; (in CCCCCC) 1.24 kcal/mol; (in CCCCCCC) 1.29 kcal/mol; (in CCCCCCCC) 1.35 kcal/mol; (in CCCCCCCCCC) 1.49 kcal/mol. For the same compound, the “solvation free energy, 298 K” value is 1.9 kcal/mol (in CCCCCCCCCCCCO); 1.83 kcal/mol (in CCCCCCCCCCO); 1.8 kcal/mol (in CCCCCCCCCO); 1.61 kcal/mol (in CCCCCCO); 1.64 kcal/mol (in CCCCCO); 1.91 kcal/mol (in CCCCCOC(C)=O). The “solvation free energy, 298 K” value by setting is: (in CCCCN(CCCC)CCCC) 1.53 kcal/mol; (in CCCCNCCCC) 1.48 kcal/mol; (in CCCCO) 1.56 kcal/mol; (in CCCCOC(C)=O) 1.5 kcal/mol; (in CCCCOCCCC) 1.42 kcal/mol; (in CCCCOCCO) 1.67 kcal/mol. Besides, the “solvation free energy, 298 K” value (in CCCN) came out at 1.35 kcal/mol; the “solvation free energy, 298 K” value (in CCCO) came to 1.52 kcal/mol; the “solvation free energy, 298 K” value (in CCN) was 1.24 kcal/mol; the “solvation free energy, 298 K” value (in CCN(CC)CC) amounted to 1.33 kcal/mol; the “solvation free energy, 298 K” value (in CCO) was 1.47 kcal/mol; the “solvation free energy, 298 K” value (in CCOC(C)=O) stood at 1.46 kcal/mol. For the same compound, the “solvation free energy, 298 K” value was found to be 1.15 kcal/mol (in CCOCC); 1.7 kcal/mol (in CCOCCO); 1.38 kcal/mol (in CN1CCCC1); 1.98 kcal/mol (in CN1CCCC1=O); 1.84 kcal/mol (in CN(C)C=O); 1.63 kcal/mol (in CN(C)CCCN). In addition, the “solvation free energy, 298 K” value (in CO) was 1.35 kcal/mol; the “solvation free energy, 298 K” value (in COC(C)=O) turned out to be 1.42 kcal/mol; the “solvation free energy, 298 K” value (in COCCO) amounted to 1.84 kcal/mol; the “solvation free energy, 298 K” value (in Cc1cccc(C)c1) is 1.49 kcal/mol; the “solvation free energy, 298 K” value (in Cc1ccccc1) is 1.62 kcal/mol; the “solvation free energy, 298 K” value (in ClC(Cl)(Cl)Cl) turned out to be 1.51 kcal/mol. The “solvation free energy, 298 K” value by setting is: (in ClC(Cl)Cl) 1.61 kcal/mol; (in ClCCCl) 1.72 kcal/mol; (in ClCCl) 1.57 kcal/mol; (in Clc1ccccc1) 1.65 kcal/mol; (in NCCCN) 2.05 kcal/mol; (in NCCN) 2.15 kcal/mol. The “solvation free energy, 298 K” value reads like this: (in O=C1CCCC1) 1.72 kcal/mol; (in O=C1CCCCC1) 1.75 kcal/mol; (in OCCO) 2.38 kcal/mol; (in c1ccccc1) 1.58 kcal/mol.

Take `CCCCOCCO`: the “solvation free energy, 298 K” value (in O) is -6.25 kcal/mol.

As to `COc1ccccc1O`, the “solvation free energy, 298 K” value (in O) was -5.67 kcal/mol.

In the case of `CN(C)CC=C(c1ccc(Br)cc1)c1cccnc1`, the “solvation free energy, 298 K” value (in O) was -11.9 kcal/mol.

For `FC(F)(F)Br`, the “solvation free energy, 298 K” value (in O) was 1.79 kcal/mol.

`CCCCC(CC)CO` (centres undefined): where the note is “in O”, the “solvation free energy, 298 K” value was -3.96 kcal/mol.

`CC(=O)CCC(C)C`: where the note is “in NC=O”, the “solvation free energy, 298 K” value was -4.52 kcal/mol.

For the compound `COc1cc(C=O)c(Cl)c(OC)c1O`, the “solvation free energy, 298 K” value (in O) was -7.78 kcal/mol.

As for `ClC(Cl)Cl`, the “solvation free energy, 298 K” value (in Brc1cccc2ccccc12) is -3.79 kcal/mol; the “solvation free energy, 298 K” value (in C1CCCC1) was -3.87 kcal/mol; the “solvation free energy, 298 K” value (in C1CCOC1) is -5.13 kcal/mol; the “solvation free energy, 298 K” value (in C1COCCO1) was -4.64 kcal/mol; the “solvation free energy, 298 K” value (in C=CCCCCCCCCCCCCCC) is -3.42 kcal/mol; the “solvation free energy, 298 K” value (in CC#N) is -4.31 kcal/mol. Besides, the “solvation free energy, 298 K” value is, setting by setting: (in CC(=O)CC(C)C) -4.51 kcal/mol; (in CC(=O)N(C)C) -5.18 kcal/mol; (in CC(=O)OCc1ccccc1) -4.25 kcal/mol; (in CC(C)=O) -4.67 kcal/mol; (in CCC(C)=O) -4.72 kcal/mol; (in CCCCCCC) -3.62 kcal/mol. Further, the “solvation free energy, 298 K” value (in CCCCCCCC) is -3.52 kcal/mol; the “solvation free energy, 298 K” value under setting [1] was -4.02 kcal/mol; the “solvation free energy, 298 K” value (in CCCCCCCCCCCCCC) is -3.35 kcal/mol; the “solvation free energy, 298 K” value (in CCCCCCCCCCCCCCCC) is -3.38 kcal/mol; the “solvation free energy, 298 K” value (in CCCCCCCCCCCCO) is -3.65 kcal/mol; the “solvation free energy, 298 K” value (in CCCCCCCCN(CCCCCCCC)CCCCCCCC) was -3.59 kcal/mol. Further, the “solvation free energy, 298 K” value is -3.8 kcal/mol (in CCCCCCCCO); -3.82 kcal/mol (in CCCCCN(CCCCC)CCCCC); -4.08 kcal/mol (in CCCCCl); -4.83 kcal/mol (in CCCCN(C=O)CCCC); -3.69 kcal/mol (in CCCCN(CCCC)CCCC); -4.02 kcal/mol (in CCCCO). Further, the “solvation free energy, 298 K” value is -4.16 kcal/mol (in CCCCOCCCC); -5.18 kcal/mol (in CCN(CC)C(C)=O); -4.57 kcal/mol (in CCNC(C)=O); -4.41 kcal/mol (in CCNC=O); -4.12 kcal/mol (in CCO); -4.1 kcal/mol (in CCOC(=O)c1ccccc1C(=O)OCC). Besides, the “solvation free energy, 298 K” value is, setting by setting: (in CCOC(C)=O) -4.61 kcal/mol; (in CN1CCCC1=O) -5.24 kcal/mol; (in CN1CCCCC1=O) -5.27 kcal/mol; (in CNC(C)=O) -4.57 kcal/mol; (in CO) -4.12 kcal/mol; (in COC(C)=O) -4.67 kcal/mol. For the same compound, the “solvation free energy, 298 K” value reads like this: (in COCOC) -4.27 kcal/mol; (in CS(C)=O) -4.72 kcal/mol; (in ClC(Cl)(Cl)Cl) -4 kcal/mol; (in ClCCCl) -4.17 kcal/mol; (in NC=O) -2.91 kcal/mol; (in O) -1.08 kcal/mol. For the same compound, the “solvation free energy, 298 K” value (in O=C1CCCCC1) was -4.73 kcal/mol; the “solvation free energy, 298 K” value (in S=C=S) is -4.15 kcal/mol; the “solvation free energy, 298 K” value (in [2H]O[2H]) is -1.26 kcal/mol; the “solvation free energy, 298 K” value (in c1ccc2ncccc2c1) is -4.41 kcal/mol.

With `c1ccc2c(c1)CCCC2`, the “solvation free energy, 298 K” value by setting is: (in CCC(C)=O) -7.43 kcal/mol; (in CCCCCCC) -7.03 kcal/mol; (in CCO) -6.29 kcal/mol; (in O=Cc1ccco1) -7.02 kcal/mol; (in OCCO) -4.97 kcal/mol; (in OCCOCCO) -5.9 kcal/mol. The “solvation free energy, 298 K” value (in OCCOCCOCCO) is -6.07 kcal/mol.

As to `ClC(Cl)C(Cl)(Cl)Cl`, under “in O”, the “solvation free energy, 298 K” value was -1.31 kcal/mol.

`ClC(Cl)C(Cl)Cl`: the “solvation free energy, 298 K” value reads like this: (in CC(C)=O) -6.28 kcal/mol; (in CCCCCCCCCCCCCCCC) -5.21 kcal/mol; (in CCCCCCCCO) -5.84 kcal/mol; (in ClC(Cl)(Cl)Cl) -5.93 kcal/mol; (in ClCCCl) -6.37 kcal/mol; (in O) -2.45 kcal/mol. The “solvation free energy, 298 K” value (in [2H]O[2H]) was -2.59 kcal/mol.

On to `O=C(O)Cc1cccc(Cl)c1`, for which the “solvation free energy, 298 K” value (in O) was -8.39 kcal/mol.

With `CCCc1ccc(O)c(OC)c1`, under “in O”, the “solvation free energy, 298 K” value was -5.26 kcal/mol.

Turning to `FC(C(F)(F)F)C(F)(F)F`, the “solvation free energy, 298 K” value is, setting by setting: (in CCCCCCCCO) -1.12 kcal/mol; (in CN1CCCC1=O) -0.6 kcal/mol; (in O) 2.01 kcal/mol.

`Oc1ccc(Cl)c(Cl)c1`: where the note is “in O”, the “solvation free energy, 298 K” value was -7.29 kcal/mol.

For the compound `C=Cc1ccccc1`, where the note is “in O”, the “solvation free energy, 298 K” value was -1.27 kcal/mol.

With `CCCCCCCC(=O)OC`, where the note is “in O”, the “solvation free energy, 298 K” value is -2.04 kcal/mol.

As for `Cc1c(Cl)c(Cl)c(Cl)c(Cl)c1Cl`, the “solvation free energy, 298 K” value is -9.88 kcal/mol under setting [1] and -2.02 kcal/mol (in O).

Take `CC(=O)CC(=O)c1cccs1`: the “solvation free energy, 298 K” value (in O) was -6.08 kcal/mol.

For `Clc1ccc(Cl)cc1`, the “solvation free energy, 298 K” value was -6.06 kcal/mol (in CCCCCC), -5.81 kcal/mol (in CCCCCCC), -6.7 kcal/mol under setting [1] and -1.01 kcal/mol (in O).

`CCCCCCCCl`: where the note is “in O”, the “solvation free energy, 298 K” value worked out at 0.29 kcal/mol.

`CC(C)COC=O`: the “solvation free energy, 298 K” value (in O) was -2.22 kcal/mol.

With `CC1(C)C2=CCCC(C)(C)C23CCC1C3` (centres undefined), the “solvation free energy, 298 K” value (in O) was determined as 0.71 kcal/mol.

As for `CCCCCCCCCCCCCCCCO`, the “solvation free energy, 298 K” value reads like this: (in CC(C)O) -13.7 kcal/mol; (in CCC(C)=O) -13.8 kcal/mol; under setting [1], -11.6 kcal/mol; (in CCCCCCCCCCO) -13.4 kcal/mol; (in CCCCCCCCO) -13.5 kcal/mol; (in CCCCCCO) -13.6 kcal/mol. Besides, the “solvation free energy, 298 K” value was -13.1 kcal/mol (in CCCCOCCCC), -13.5 kcal/mol (in CCOCC) and -2.76 kcal/mol (in O).

Turning to `CF`, the “solvation free energy, 298 K” value was 0.03 kcal/mol (in CCCO) and -0.22 kcal/mol (in O).

In the case of `Clc1ccc(-c2c(Cl)c(Cl)cc(Cl)c2Cl)cc1Cl`, for the setting “in O”, the “solvation free energy, 298 K” value was -4.38 kcal/mol.

In the case of `CCC(C)(C)CC`, the “solvation free energy, 298 K” value (in C=CCCCCCCCCCCCCCC) is -3.89 kcal/mol.

Take `CCOC(C)(C)CC`: the “solvation free energy, 298 K” value (in O) is -1.5 kcal/mol.
